Measurements from US9445605B2, “Method for disinfection or infection control against a non-enveloped virus” (Hiroshima University, priority 2006, dated 2016).

Experiments:
Rotavirus Wa Strain = test: Rotavirus infectivity after reagent treatment (fluorescent staining of MA104 cells); conditions: equal amounts of virus and reagent, 3 minutes at room temperature; for Residual infectivity after treatment: MA104 cells
Protocol: Equal amounts (35 μL) of a virus solution and a reagent were mixed, followed by reaction at room temperature for 3 minutes. A 10-fold dilution series was formed using a diluent (MEM) and the MA104 cells on a cover slip (9×28 mm) were infected with 50 μL of the virus solution. After adsorption for 1 hour, the cells were washed with PBS one time and a growth medium (10% PBS-MEM) was added, followed by culture.
One day after, fluorescent staining was performed with anti-rotavirus antibody (monoclonal antibody: Abgene REMEI-1) and Alexa Fluor 488-labeled anti-mouse IgG antibody (SantaCruz Biotechnology), and positive cells were counted in a field of view under a fluorescent microscope (400 times) (average area of 20 fields of view). The number of positive cells per cover slip was calculated on the basis of the area of the field of view, and further infectivity per mL of virus solution was calculated (unit: CIU (cell infecting units)/ml; Kiyotani et al., Virology 177:65-74, 1990). When the number of positive cells was small, the positive cells were measured by observing the whole of the cover slip.

[1] = system: Coxsackie virus group B, type 5; test: Coxsackie virus infectivity after reagent treatment (TCID50 in FL cells); assay type: cell-based
Protocol: The FL cells were infected with the virus, and a 50% infection dose (unit: 50% tissue culture infectious dose [TCID50]) was calculated.
To eliminate the influence of serum contained in original viruses, a virus solution was previously 50 times diluted with PBS.

[2] = Measurement of pH of the reagents; assay type: physicochemical; conditions: summary Table 9
From the text: Also, the experiment was repeated to confirm reproducibility.

Feline calicivirus = Feline calicivirus infectivity after reagent treatment (TCID50 in CRFK cells); assay type: cell-based; conditions: equal amounts of virus and reagent, 3 minutes at room temperature
Protocol: To eliminate the influence of serum contained in the original virus, a virus solution was previously 5 times diluted with a diluent (Eagle's minimum essential medium, penicillin G, streptomycin). Equal amounts (35 μL) of the diluted virus solution and each reagent were mixed and allowed to react at room temperature for 3 minutes. Then, a ten-fold dilution series was prepared using the diluent.
Monolayer CRFK cells on a 96-well plate were washed with PBS one time and then the diluted virus solution was inoculated (50 μl/well). After incubation with a CO2 incubator for adsorption and penetration of the virus for 1 hour, the cells were washed with PBS one time, and then a maintenance solution (the same as the diluent) was added (100 μL/well), followed by culture. Three days after, the cells were fixed and stained after extension of CPE, and a 50% infectious dose (unit: 50% tissue culture infectious dose [TCID50]) was calculated using a Behrens-Kaerber method to measure viral infectivity.

[3] = system: Adenovirus (nonproliferating, adenovirus type-5-derived); test: Adenovirus infectivity after reagent treatment (fluorescent staining of FL cells); assay type: cell-based
Protocol: Monolayer FL cells (cell line contaminated with HeLa cells (derived from human cervical cancer epithelial cells)) on the cover slip (9×28 mm) were washed with PBS one time and then infected with a 50 μL of virus solution. After adsorption for 1 hour, the cells were washed with PBS one time, and then a maintenance solution (the same as the diluent) was added, followed by culture.
Two days after, fluorescent staining was performed with anti-adenovirus antibody (monoclonal antibody: Chemicon MAB805) and Alexa Fluor 488-labeled anti-mouse IgG antibody (SantaCruz Biotechnology), and positive cells were counted in a field of view under a fluorescent microscope (400 times) (average of 20 fields of view was calculated).

[4] = equal amounts of virus and reagent, 3 minutes at room temperature
[5] = equal amounts of virus and reagent, 3 minutes at room temperature, FL cells

CCO [80% (v/v) ethanol, ethanol]
Infectivity ratio (to PBS) (Rotavirus Wa Strain): 0 | Residual infectivity after treatment (Rotavirus Wa Strain): 0 CIU/ml

CCO [50% (v/v) ethanol, ethanol]
Infectivity ratio (to PBS) (Rotavirus Wa Strain): 0.06 | Residual infectivity after treatment (Rotavirus Wa Strain): 6.2E+05 CIU/ml | Anti-Coxsackie virus activity (in words) [1]: no anti-Coxsackie virus activity | Effect (times) (to PBS) [1, 4]: 1 times | Infectivity ratio (to PBS) [1, 4]: 1.778 | Infectivity (TCID50/ml) [1, 5]: 3.2E+07 TCID50/ml | pH [2]: 5.09 | Effect (times) (to PBS) (Feline calicivirus): 12 times | Infectivity ratio (to PBS) (Feline calicivirus): 0.09 | Infectivity (TCID50/ml) (Feline calicivirus; CRFK cells): 3.2E+07 TCID50/ml | Inactivation activity for adenovirus (in words) [3]: no inactivation ability | Effect (times) (to PBS) [3, 4]: 4 times | Infectivity ratio (to PBS) [3, 4]: 0.2 | Residual infectivity after treatment [3, 5]: 7.7E+07 CIU/ml
